Active and inactive are the calls of the source.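 The calls were made as follows: active = blocks current through the Kir2.1 potassium channel at one or more tested doses and yields a dose response curve; inactive = no block at any dose, or no dose response.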

Chain of Inward rectifier potassium channel 2 (Mus musculus) (P35561 whole entry, looked up): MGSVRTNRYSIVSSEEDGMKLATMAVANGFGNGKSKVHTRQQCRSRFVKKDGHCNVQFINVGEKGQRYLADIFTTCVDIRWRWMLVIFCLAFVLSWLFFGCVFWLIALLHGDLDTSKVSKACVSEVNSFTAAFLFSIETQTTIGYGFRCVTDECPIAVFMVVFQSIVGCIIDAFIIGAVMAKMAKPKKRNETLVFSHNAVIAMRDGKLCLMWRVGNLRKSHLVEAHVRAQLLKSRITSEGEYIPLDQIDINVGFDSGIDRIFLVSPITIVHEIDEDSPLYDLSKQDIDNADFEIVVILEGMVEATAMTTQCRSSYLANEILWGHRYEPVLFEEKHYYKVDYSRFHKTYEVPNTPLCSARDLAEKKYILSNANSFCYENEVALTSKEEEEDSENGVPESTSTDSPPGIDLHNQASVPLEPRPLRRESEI

One assay has as its target Inward rectifier potassium channel 2 (Mus musculus) (UniProt P35561). Briefly: Kir2.1 thallium flux blockade potency – cell-based, FluxOR, SAR follow-up (AID 504557). To be noted: Kir2.1 stable cells, FluxOR thallium flux fluorescence.
In the case of `c1ccc(CNc2c3ccccc3nc3ccccc23)cc1`, the IC50 is 13.3 µM.

Consider `C[C@H](NS(=O)(=O)c1ccc(Cl)cc1)c1ccccc1`, for which the IC50 was 11.7 µM.

For `Cc1ccc2nc(N3CCN(CCO)CC3)nc(-c3ccccc3)c2c1`, the IC50 is 13.9 µM.

As for `Cc1noc(C)c1COC(=O)CCN1c2ccccc2Sc2ccccc21`, the IC50 is 7.6 µM.

With `C[C@H](NS(=O)(=O)c1ccc(Br)cc1)c1ccccc1`, the IC50 is 7.14 µM.

`C[C@H](NS(=O)(=O)c1ccccc1)c1ccccc1`: the IC50 is 4.9 µM.

`C[C@H](NS(=O)(=O)c1cccc(Br)c1)c1ccccc1`: the IC50 is 11 µM.

As for `Cc1ccc(Nc2cc(C)nc3c(C)cccc23)cc1`, the IC50 was 7.57 µM.

Take `Cc1ccc(S(=O)(=O)N[C@H](C)c2ccccc2)cc1`: the IC50 is 9.46 µM.

For `C[C@H](NS(=O)(=O)c1cc(Cl)cc(Cl)c1O)c1ccccc1`, the IC50 was 34.1 µM.

Consider `CC(NS(=O)(=O)c1ccc(Br)cc1)c1ccccc1` (configuration not stated), for which the IC50 was 6.93 µM.

In the case of `Cc1ccc(S(=O)(=O)N[C@@H](C)c2ccccc2)cc1`, the IC50 is 15.2 µM.

As for `C[C@@H](NS(=O)(=O)c1ccc(Br)cc1)c1ccccc1`, the IC50 was 25.3 µM.

On to `Cc1ccc(C)c(OCCCNCc2ccccc2)c1`, for which the IC50 is 1.38 µM.

For the compound `C[C@H](NS(C)(=O)=O)c1ccccc1`, the IC50 is 4.74 µM.

Take `Cc1ccc2nc(NCc3ccccc3)[nH]c2c1`: the concentration for half-maximal inhibition (IC50) is 13.6 µM.

Regarding `C[C@@H](NS(=O)(=O)c1ccc(Cl)cc1)c1ccccc1`, the IC50 is 13.4 µM.

For the compound `C[C@@H](NS(=O)(=O)c1cccc(Br)c1)c1ccccc1`, the IC50 is 7.59 µM.

On to `c1ccc(COc2ccc(OCCCNC3CCCC3)cc2)cc1`, for which the IC50 was 11.8 µM.

For `CC(O)CNCCCOc1cccc(Oc2ccccc2)c1` (configuration not stated), the IC50 is 0.679 µM.

Regarding `C[C@@H](NS(=O)(=O)c1ccccc1Br)c1ccccc1`, the IC50 is 13 µM.

In the case of `C[C@H](NS(=O)(=O)c1ccccc1Br)c1ccccc1`, the IC50 was 12.9 µM.

Still in this assay, the particulars now being: Kir2.1 stable cells, FluxOR thallium flux fluorescence; at 71 µM (top of the series).
Turning to `C[C@@H](NS(C)(=O)=O)c1ccccc1`, the “activity change, negative = inhibition” value is “inactive”.

As to `C[C@@H](NS(=O)(=O)c1ccccc1)c1ccccc1`, the “activity change, negative = inhibition” value was “inactive”.

Regarding `C[C@@H](NS(=O)(=O)c1cc(Cl)cc(Cl)c1O)c1ccccc1`, the “activity change, negative = inhibition” value was “inactive”.

As for `O=S(=O)(c1ccc(F)cc1)N1CCCc2ccccc21`, the “activity change, negative = inhibition” value is “inactive”.

Consider `O=C(NCC1CCCCN1)c1cc(OCC(F)(F)F)ccc1OCC(F)(F)F` (configuration not stated), for which the “activity change, negative = inhibition” value is “inactive”.

In general, IC50 refers to the concentration that inhibits the measured activity by half.

The values are drawn from PubChem BioAssay AID504557 (Johns Hopkins Ion Channel Center, 2011).
